From patent US20140364445A1, “PHARMACEUTICAL COMPOSITION COMPRISING A TRPA1 ANTAGONIST AND AN ANTICHOLINERGIC AGENT” (GLENMARK PHARMACEUTICALS S.A., priority 2011, published 2014)
Like-named read-outs stand apart in the source and are kept apart here.

Experiments:
LPS induced neutrophilia [1] = assay: LPS induced neutrophilia, Compound 52 and ipratropium bromide; assay type: in vivo, male SD rats; conditions: for inhibition at 6 mg/kg: Rattus norvegicus, Neutrophil, po
Experimental: Animals were grouped as mentioned in Table 8. LPS at a concentration of 100 mcg ml^−1 was nebulized for 40 min at 0.4 ml/min and a pressure of 1.7 psig in a Perspex exposure chamber (1.5×1×1 ft) fitted with nebulizer (RCI Hudson). Control animals were given saline exposure under similar conditions. All the animals were treated as mentioned in Table 8. […] Bronchoalveolar lavage (BAL) was done after 4 h of LPS exposure. Animals were anesthetized with urethane (1.2 gm/kg/5 mL, i.p. in normal saline) and BAL was done with PBS (3 ml). This procedure was repeated three times and the BAL fluid was pooled for the measurement of total leukocyte. Remaining BAL fluid was centrifuged at 4000 rpm for 20 min. The pellet formed in the bottom of the tube was used for the smear preparation for differential leukocyte count estimation. The differential leukocyte count was done using Leishman's stain. […] Statistical significance was set at p<0.05.

human TRPA1 receptor = target: T1, human TRPA1 receptor (Homo sapiens, UniProt O75762); assay: Inhibition of AITC induced cellular uptake of radioactive calcium in human TRPA1 expressing CHO cells; assay type: cell-based; conditions: read-out: hTRPA1 IC50 values
T1 construct: expressed in transfected cells; host or cells: CHO cells
Experimental: The human IC50 values were measured by the following method:
The inhibition of TRPA1 receptor activation was measured as inhibition of allylisothiocyanate (AITC) induced cellular uptake of radioactive calcium.

[2] = system: methacholine-induced bronchoconstriction; assay: Methacholine challenge test (methacholine-induced bronchoconstriction), invasive whole body plethysmograph; assay type: in vivo, male Dunkin Hartley guinea pig; conditions: for inhibition at 10 mg/kg: Cavia porcellus, read-out: % inhibition in airway resistance (Mean ± SEM)
Experimental: The effect of Compound 52, tiotropium bromide and their combination on methacholine challenge test in male Dunkin Hartley guinea pig was evaluated using invasive whole body plethysmograph (Elan™ R C, Buxco apparatus). Animals and grouped as described in Table 2.
Animals were anesthetized by intraperitonial injection of urethane (1 g/kg). The surgical process carried out in the aseptic area. Right jugular vein of anesthetized animal was exposed and cannulated with fine bore polythene tube. Trachea was also cannulated for artificial respiration and to measure airway resistance. The prepared animal was fixed in the invasive whole body plethysmograph with artificial respiration (tidal volume −7 ml). Methacholine challenge test was performed and the recordings were taken by the following schedule. • First log period: Baseline −5 min • Second log period: Normal saline −3 min • Third log period: Methacholine −3 min
This protocol was performed for all groups. Compound 52 (10 mg/kg, i.p.) was injected 4 hour prior to methacholine challenge. Tiotropium (0.5 mcg/kg, i.v) was given at second log period. In third log period, the animal was injected with methacholine (60 mcg/kg/2 ml, i.v). The methacholine induced bronchoconstriction (expressed as airway resistance (RI value in cmH2O*sec/ml)) was recorded by Buxco apparatus.

LPS induced neutrophilia [3] = assay: LPS induced neutrophilia, Compound 52 and tiotropium; assay type: in vivo, female SD rats; conditions: for inhibition at 3 mg/kg: Rattus norvegicus, Neutrophil, po
Experimental: The effect of combination of Compound 52 and tiotropium on LPS induced neutrophilia in female SD rats was evaluated. Female SD rats were grouped as mentioned in Table 6. Compound 52 (3 mg/kg/5 ml) and tiotropium (1 mcg/ml as inhalation for 3 min at the rate of 0.05 ml/min) were administered 2 and 1 hour prior to LPS exposure respectively. LPS was nebulized at concentration of 100 mcg ml^−1 for 40 min at 0.4 ml min^−1 and a pressure of 1.7 psig in a perspex exposure chamber (1.5×1×1 ft) fitted with nebulizer (RCI Hudson). Control animals were given saline exposure under similar conditions.
(§1) Bronchoalveolar lavage (BAL) was done after 4 h of LPS exposure. Animal was anesthetized with urethane (1.2 gm/kg/5 mL, i.p. in normal saline) and BAL was done with PBS (3 ml). This procedure was repeated three times and the BAL fluid was pooled for the measurement of total leukocyte. BAL fluid was centrifuged immediately at 4000 rpm for 20 min and the pellet formed in the bottom of the tube was used for the smear preparation for differential leukocyte count estimation.

LPS induced neutrophilia [4] = assay: LPS induced neutrophilia, Compound 52 and aclidinium bromide; assay type: in vivo, male SD rats; conditions: BAL 4 h after LPS, Compound 52 3 mg/kg p.o., aclidinium 50 mcg/ml inh; for inhibition at 3 mg/kg: Rattus norvegicus, Neutrophil, po, read-out: No of neutrophils, % inhibition (mean ± S.E.M.) (converted)
Experimental: The effect of combination of Compound 52 and aclidinium bromide on LPS induced neutrophilia in male SD rats was evaluated. Animals were grouped as mentioned in Table 4.
LPS was nebulized at concentration of 100 mcg ml^−1 for 40 min at 0.4 ml/min and a pressure of 1.7 psig in a Perspex exposure chamber (1.5×1×1 ft) fitted with nebulizer (RCI Hudson). Control animals were given saline exposure under similar conditions. All the animals were treated with compounds as mentioned in Table 4. Compound 52 (3 mg/kg/5 ml) was administered orally 2 h prior to LPS and aclidinium (50 mcg/ml) was nebulized at the rate of 0.05 ml/min and exposed to the animals for 3 min prior LPS exposure.
as §1, with “Animals were” for “Animal was”, “leukocyte. Remaining” for “leukocyte.”, “min. The” for “min and the”, “estimation. The smeared slides were fixed by alcohol and stained using Leishman's stain further carried for differential leukocyte count.” for “estimation.”

[5] = BAL 4 h after LPS, Compound 52 6 mg/kg p.o., ipratropium 1 mg/ml inh
[6] = 4 h, read-out: No of neutrophils, % inhibition (mean ± S.E.M.)
[7] = Compound 52 10 mg/kg i.p. 4 hour prior, tiotropium bromide 0.5 mcg/kg i.v., methacholine 60 mcg/kg i.v.
[8] = BAL 4 h after LPS, Compound 52 3 mg/kg p.o., tiotropium 1 mcg/ml inh

T1 sequence (O75762 whole entry): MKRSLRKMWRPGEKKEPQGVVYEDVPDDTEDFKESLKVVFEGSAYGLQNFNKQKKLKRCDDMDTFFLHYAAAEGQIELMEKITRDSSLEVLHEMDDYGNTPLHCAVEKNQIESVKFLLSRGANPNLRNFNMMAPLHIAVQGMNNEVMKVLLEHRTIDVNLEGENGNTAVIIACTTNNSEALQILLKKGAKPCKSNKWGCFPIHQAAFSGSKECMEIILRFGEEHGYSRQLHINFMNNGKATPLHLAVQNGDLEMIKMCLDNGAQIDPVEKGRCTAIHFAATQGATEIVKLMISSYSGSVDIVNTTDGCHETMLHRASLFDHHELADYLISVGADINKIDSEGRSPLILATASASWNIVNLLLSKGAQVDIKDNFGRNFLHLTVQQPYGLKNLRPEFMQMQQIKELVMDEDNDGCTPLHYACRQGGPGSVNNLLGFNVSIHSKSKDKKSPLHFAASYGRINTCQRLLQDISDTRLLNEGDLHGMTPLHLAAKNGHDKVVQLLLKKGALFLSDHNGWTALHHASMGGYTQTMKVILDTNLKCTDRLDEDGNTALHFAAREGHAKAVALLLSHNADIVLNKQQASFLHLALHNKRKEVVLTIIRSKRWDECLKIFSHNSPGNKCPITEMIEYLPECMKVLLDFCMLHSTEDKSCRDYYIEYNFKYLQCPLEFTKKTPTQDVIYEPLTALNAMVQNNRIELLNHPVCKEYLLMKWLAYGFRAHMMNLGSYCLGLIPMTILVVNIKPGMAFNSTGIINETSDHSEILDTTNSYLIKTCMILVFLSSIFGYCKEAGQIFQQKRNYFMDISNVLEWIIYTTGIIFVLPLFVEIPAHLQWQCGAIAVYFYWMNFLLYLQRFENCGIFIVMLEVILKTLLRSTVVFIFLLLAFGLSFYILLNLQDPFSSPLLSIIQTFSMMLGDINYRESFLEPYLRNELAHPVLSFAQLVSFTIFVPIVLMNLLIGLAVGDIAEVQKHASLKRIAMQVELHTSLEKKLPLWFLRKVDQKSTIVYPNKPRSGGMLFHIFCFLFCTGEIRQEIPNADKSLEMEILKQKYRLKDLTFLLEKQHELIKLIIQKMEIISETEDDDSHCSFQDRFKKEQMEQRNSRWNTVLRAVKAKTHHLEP

Structure (SMILES) | No of neutrophils (mean ± S.E.M.) (LPS induced neutrophilia [1]; [5]) | Mean airway resistance (Mean ± SEM) [2, 7] [cmH2O*sec/ml] | No of neutrophils (mean ± S.E.M.) (LPS induced neutrophilia [3]; [8]) | No of neutrophils (mean ± S.E.M.) (LPS induced neutrophilia [4]) | inhibition at 3 mg/kg (LPS induced neutrophilia [4]) [%] | further results
CC(C)[N+]1(C)[C@@H]2CC[C@H]1C[C@@H](OC(=O)C(CO)c1ccccc1)C2 (some centres unmarked) [Ipratropium bromide, 8-azoniabicyclo (3.2.1) octane, 3-(3-hydroxy-1-oxo-2-phenylpropoxy)-8-methyl-8-(1-methylethyl)-, bromide monohydrate, reference compound] | 6.2 ± 0.6 |  |  |  |  | inhibition at 6 mg/kg (LPS induced neutrophilia [1]; [6]): 23%
Cn1c(=O)c2c(CC(=O)/N=c3\scc(-c4ccc(F)c(C(F)(F)F)c4F)n3COP(=O)(O)O)csc2n(C)c1=O [Compound 96] |  |  |  |  |  | IC50 (human TRPA1 receptor): 559 nM
Cn1c(=O)c2c(CC(=O)Nc3nc(-c4ccc(F)c(C(F)(F)F)c4F)cs3)csc2n(C)c1=O [Compound 52] | 8.4 ± 0.8 | 0.77 ± 0.11 | 6.7 ± 0.9 | 6.73 ± 0.72 | 20.4 | inhibition at 10 mg/kg [2, 7]: 37.9 ± 6.7%; inhibition at 6 mg/kg (LPS induced neutrophilia [1]; BAL 4 h after LPS, Compound 52 6 mg/kg p.o., ipratropium 1 mg/ml inh, read-out: No of neutrophils, % inhibition (mean ± S.E.M.) (converted)): -3.2%; inhibition at 3 mg/kg (LPS induced neutrophilia [3]; BAL 4 h after LPS, Compound 52 3 mg/kg p.o., tiotropium 1 mcg/ml inh, read-out: No of neutrophils, % inhibition (mean ± S.E.M.) (converted)): 17.9%
C[N+]1(C)[C@@H]2C[C@@H](OC(=O)C(O)(c3cccs3)c3cccs3)C[C@H]1[C@@H]1O[C@@H]12 [Tiotropium bromide, (1α, 2β, 4β, 5α, 7β)-7-[(hydroxydi-2-thienylacetyl)oxy]-9,9-dimethyl-3-oxa-9-azoniatricyclo[3.3.1.02,4] nonane bromide monohydrate, reference compound] |  | 1.51 ± 0.32 | 6.8 ± 0.7 |  |  | inhibition at 10 mg/kg [2]: -10.7 ± 23.4%; inhibition at 3 mg/kg (LPS induced neutrophilia [3]; [6]): 18.9%
O=C(O[C@H]1C[N+]2(CCCOc3ccccc3)CCC1CC2)C(O)(c1cccs1)c1cccs1.[Br-] [Aclidinium bromide, [(8R)-1-(3-phenoxypropyl)-1-azoniabicyclo[2.2.2]octan-8-yl]2-hydroxy-2,2-dithiophen-2-ylacetate bromide, reference compound] |  |  |  | 7.13 ± 1.03 | 21.1 | 
